Some test systems named below: A549; ACHN; BT-549; COLO 205; HCT-116; HOP-62; HOP-92; IGROV-1; KM12; M14; MCF7; MOLT-4; SK-OV-3; SN12C; SR; SW-620; T47D; U-251; UACC-257; UO-31.
Test in all cases: NCI-60 cell line screen, 48 h

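Interpolation was linear, between the two tested concentrations surrounding the appropriate level; five concentrations were tested over 48 hours in 96-well plates. GI50 marks 50% less growth.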 Calls of active or inactive are those of the source. No stated cut-off is given here; in the data, active = GI50 up to about 1.1 µM and inactive = higher.

With `COc1cccc2cc(C(=O)NC34CC5CC(CC(C5)C3)C4)c(=N)oc12`, the GI50 is 64.7 µM (inactive) with A549; > 67.6 µM (inactive) in the assay on ACHN; > 80.7 µM (inactive) with BT-549; 58.3 µM (inactive) in the assay on COLO 205; 52.1 µM (inactive) with HCT-116; 53.1 µM (inactive) with HOP-62. Moreover, the GI50 was > 36.2 µM (inactive) in the assay on HOP-92; > 46.3 µM (inactive) in the assay with IGROV-1; 54.6 µM (inactive) with KM12; > 100 µM (inactive) with M14; 13.2 µM (inactive) with MCF7; 1.35 µM (inactive) in the assay on MOLT-4. Also, the GI50 is 58.6 µM (inactive) in the assay on SK-OV-3; > 100 µM (inactive) with SN12C; 10.2 µM (inactive) in the assay on SR; 49.9 µM (inactive) in the assay on SW-620; 18.2 µM (inactive) with T47D; 55.3 µM (inactive) in the assay on U-251. For the same compound, the GI50 in the assay on UACC-257 is > 89.3 µM (inactive); in the assay on UO-31, 2.67 µM (inactive).

In the case of `O=C(Nc1ccccc1C(=O)O)C(=Cc1ccccc1O)NC(=O)c1ccccc1`, the GI50 in the assay on A549, in the assay with ACHN, with BT-549, in the assay with COLO 205, with HCT-116 and in the assay on HOP-62 was > 100 µM (inactive) throughout. In addition, the GI50 with HOP-92 is > 100 µM (inactive); with IGROV-1, > 100 µM (inactive); in the assay on KM12, > 100 µM (inactive); in the assay on M14 it was > 100 µM (inactive); in the assay with MCF7, 9.27 µM (inactive); with MOLT-4 it was > 100 µM (inactive). The GI50 in the assay with SK-OV-3 is > 100 µM (inactive); with SN12C, > 100 µM (inactive); in the assay with SR it was > 100 µM (inactive); with SW-620, > 100 µM (inactive); in the assay with T47D it was 49.1 µM (inactive); with U-251 it was > 100 µM (inactive). The GI50 in the assay with UACC-257 and with UO-31 was > 100 µM (inactive) each time.

Regarding `COC(=O)Nc1nc2cc(S(=O)(=O)n3nnc4ccccc43)ccc2[nH]1`, the GI50 is > 100 µM (inactive) in the assay with A549; 59.4 µM (inactive) in the assay with ACHN; 17.6 µM (inactive) with BT-549; > 100 µM (inactive) in the assay with COLO 205; 53.8 µM (inactive) with HCT-116; 15.8 µM (inactive) in the assay on HOP-62. The GI50 with HOP-92 is 14.5 µM (inactive); in the assay with IGROV-1, 31.3 µM (inactive); in the assay with KM12 it was > 100 µM (inactive); with M14, > 100 µM (inactive); in the assay on MCF7 it was 28.1 µM (inactive); with MOLT-4, > 100 µM (inactive). Besides, the GI50 was 17.1 µM (inactive) in the assay with SK-OV-3; > 100 µM (inactive) in the assay with SN12C; 75.2 µM (inactive) with SR; > 100 µM (inactive) with SW-620; 37.8 µM (inactive) with T47D; 26.6 µM (inactive) with U-251. Besides, the GI50 with UACC-257 is 5.61 µM (inactive); in the assay with UO-31, > 100 µM (inactive).

As to `O=C1Oc2ccccc2C(=O)/C1=C/NC(=S)NCCc1ccccc1`, the GI50 with A549 was 49 µM (inactive); with ACHN, 19.2 µM (inactive); in the assay with BT-549, 20.2 µM (inactive); with COLO 205, 48.4 µM (inactive); in the assay with HCT-116, 33.3 µM (inactive); in the assay with HOP-62, 51.8 µM (inactive). Moreover, the GI50 in the assay on HOP-92 was 23.7 µM (inactive); in the assay on IGROV-1, 27 µM (inactive); in the assay with KM12, 37.2 µM (inactive); in the assay with M14, 55 µM (inactive); in the assay with MCF7 it was 56.1 µM (inactive); with MOLT-4, 57.1 µM (inactive). The GI50 in the assay with SK-OV-3 is 33.6 µM (inactive); with SN12C it was 40 µM (inactive); with SR it was 14.6 µM (inactive); in the assay with SW-620, 42.6 µM (inactive); with T47D, 35.1 µM (inactive); in the assay on U-251 it was 53.6 µM (inactive). Moreover, the GI50 in the assay on UACC-257 is 62.1 µM (inactive); with UO-31, 17.1 µM (inactive).

As for `CC(C)C(C/C=C1/CC(CO)(COC(=O)C(C)(C)C)OC1=O)C(C)C` (stereo not given), the GI50 is 1.09 µM (active) in the assay on A549; 5.9 µM (inactive) in the assay with ACHN; 13.5 µM (inactive) with BT-549; 0.0678 µM (active) with COLO 205; 14.3 µM (inactive) in the assay on HCT-116; 1.03 µM (active) with HOP-62. Also, the GI50 was 10.4 µM (inactive) in the assay on HOP-92; 16.2 µM (inactive) in the assay on IGROV-1; 13.8 µM (inactive) in the assay with KM12; 11.7 µM (inactive) in the assay on M14; 18.4 µM (inactive) in the assay with MCF7; 0.514 µM (active) with MOLT-4. Besides, the GI50 in the assay on SK-OV-3 was 16.7 µM (inactive); with SN12C, 11.1 µM (inactive); with SR it was 14.9 µM (inactive); with SW-620, 3.31 µM (inactive); with T47D it was 4.52 µM (inactive); in the assay on U-251, 12.6 µM (inactive). The values for the GI50 with UACC-257 and in the assay with UO-31 were 16.8 µM (inactive) and 4.07 µM (inactive), respectively.

In the case of `O=C1CC(=O)NC(NN2C(=O)/C(=C/C(=O)c3ccco3)N=C2c2ccccc2)=N1`, the GI50 in the assay on A549 was > 100 µM (inactive); in the assay on ACHN, > 100 µM (inactive); in the assay on BT-549, 36.6 µM (inactive); in the assay with COLO 205, > 100 µM (inactive); with HCT-116, > 100 µM (inactive); with HOP-62, > 100 µM (inactive). Further, the GI50 in the assay with HOP-92 was 24.8 µM (inactive); with IGROV-1, 43.3 µM (inactive); with KM12, 30.5 µM (inactive); in the assay with M14, 92.3 µM (inactive); in the assay with MCF7 it was 95.1 µM (inactive); in the assay on MOLT-4, 22.9 µM (inactive). The GI50 was > 100 µM (inactive) with SK-OV-3; > 100 µM (inactive) in the assay with SN12C; 14.6 µM (inactive) in the assay with SR; 73.6 µM (inactive) in the assay on SW-620; 70.1 µM (inactive) in the assay with T47D; 47.5 µM (inactive) in the assay on U-251. Also, the GI50 in the assay on UACC-257 was 92.3 µM (inactive); with UO-31, 57.8 µM (inactive).

Take `COc1cc2c(cc1OC(=O)c1cc3ccccc3[nH]1)N=C[C@@H]1CCCN1C2=O`: the GI50 is 0.662 µM (active) with A549; 0.244 µM (active) in the assay on ACHN; 0.638 µM (active) in the assay on BT-549; 0.202 µM (active) in the assay with COLO 205; 0.41 µM (active) in the assay on HCT-116; 0.363 µM (active) in the assay on HOP-62. Further, the GI50 in the assay on HOP-92 was 0.542 µM (active); in the assay on IGROV-1, 0.274 µM (active); with KM12, 0.433 µM (active); in the assay with M14, 0.18 µM (active); in the assay on MCF7 it was 0.397 µM (active); in the assay on MOLT-4, 0.18 µM (active). Besides, the GI50 was 1.35 µM (inactive) with SK-OV-3; 0.221 µM (active) in the assay with SN12C; 0.174 µM (active) with SR; 0.325 µM (active) in the assay with SW-620; 0.851 µM (active) with T47D; 0.292 µM (active) with U-251. The figures for the GI50 in the assay with UACC-257 and in the assay with UO-31 were 0.268 µM (active) and 0.129 µM (active), respectively.

For `Cc1ccc(C(=O)O)c(CC2Cc3c(C)cccc3C2=O)c1` (stereo not given), the GI50 in the assay with A549, in the assay with ACHN, with BT-549, in the assay on COLO 205, in the assay with HCT-116 and in the assay on HOP-62 was > 100 µM (inactive) throughout. In addition, the GI50 in the assay with HOP-92, with IGROV-1, with KM12, in the assay with M14, in the assay on MCF7 and with MOLT-4 was > 100 µM (inactive) each time. Besides, the GI50 in the assay on SK-OV-3, in the assay on SN12C, with SR, in the assay on SW-620, in the assay on T47D and in the assay with U-251 was > 100 µM (inactive) throughout. Besides, the GI50 in the assay with UACC-257 and in the assay on UO-31 was > 100 µM (inactive) in each case.

Take `CCN(CC)C1Oc2cc3c(cc2C(c2cc(OC)c(O)c(OC)c2)C1C)OCO3` (stereo not given): the GI50 with A549 was 11.7 µM (inactive); with ACHN it was 18.3 µM (inactive); in the assay on BT-549, 6.95 µM (inactive); in the assay with COLO 205, 15.5 µM (inactive); in the assay with HCT-116, 4.53 µM (inactive); in the assay on HOP-62 it was 10.1 µM (inactive). Besides, the GI50 in the assay with HOP-92 was 15.5 µM (inactive); in the assay with IGROV-1, 9.98 µM (inactive); with KM12, 4.44 µM (inactive); in the assay with M14 it was 4.69 µM (inactive); in the assay with MCF7 it was 4.85 µM (inactive); in the assay with MOLT-4, 6.08 µM (inactive). Further, the GI50 in the assay on SK-OV-3 is 9.18 µM (inactive); in the assay with SN12C, 15.2 µM (inactive); in the assay with SR, 4.57 µM (inactive); in the assay on SW-620 it was 4.62 µM (inactive); in the assay on T47D it was 16.8 µM (inactive); in the assay on U-251 it was 10.5 µM (inactive). Besides, the GI50 with UACC-257 is 25 µM (inactive); in the assay on UO-31, 19.6 µM (inactive).

For the compound `O=[N+]([O-])c1cc(CCl)ccc1CCl`, the GI50 in the assay on A549 is 5.79 µM (inactive); with ACHN, 1.72 µM (inactive); in the assay with BT-549, 3.07 µM (inactive); in the assay with COLO 205, 1.71 µM (inactive); with HCT-116 it was 1.69 µM (inactive); in the assay with HOP-62 it was 1.54 µM (inactive). In addition, the GI50 is 1.76 µM (inactive) in the assay on HOP-92; 1.56 µM (inactive) in the assay with IGROV-1; 1.66 µM (inactive) in the assay with KM12; 1.74 µM (inactive) with M14; 1.63 µM (inactive) with MCF7; 2.1 µM (inactive) in the assay with MOLT-4. Further, the GI50 in the assay on SK-OV-3 was 13.3 µM (inactive); with SN12C, 1.53 µM (inactive); in the assay with SR, 0.893 µM (active); with SW-620, 2.17 µM (inactive); in the assay on T47D, 0.676 µM (active); with U-251, 1.75 µM (inactive). Further, the GI50 in the assay with UACC-257 is 3.07 µM (inactive); in the assay with UO-31, 1.66 µM (inactive).

These data come from ChEMBL document CHEMBL1201862, “PubChem BioAssay data set” (2004).
